Data on three compounds can be found in US20230271770A1, “Anti-Viral Pharmaceutical Formulations Administered Via Devices for Lung Targeted Delivery” (priority 2020, published 2023).

Where two headings read alike, the source gives them in different places.

In data set [1] the test system is SARS-CoV-2. The note with it: Reference [3]; read-out: EC 50, for SARS-Cov2, Treatment 24 hrs; cited from earlier work.
Data set [2] relates to SARS-CoV-2. The note with it: Reference [3], cited from earlier work.
The subject of data set [3] is SARS-CoV-2. Particulars: Reference [4]; read-out: EC 50, for SARS-Cov2, Treatment 48 hrs; cited from earlier work.
The nature of data set [4]: In-line Cascade Impactor (Andersen) evaluation, MDI actuator through elbow connection and ventilator tubing. It counts as physicochemical. On the set-up: Delivered <1.1 mcm / Delivered <4.7 mcm: unit not given here. The note with it: Alveoli, in-Line Tube (55 cm), HCQB-e, connection w/inner channel, Ave, 5% EtOH, 200 mcg. As to the method: An example of a ventilator device, for example ventilator device 1700A, was tested and compared to a self-administrable, handheld MDI to determine the target site delivery efficiency in the ventilator circuit as compared to the MDI delivery efficiency without the ventilator circuit (e.g. no elbow connector or ventilator tubing).
Prime HCQ valve by discharging a predetermined number of actuations to waste. Discharge 10 actuations with actuator H004B-a into the cascade impaction sampling apparatus through an elbow connection w/inner channel and an in-line tubing (55 cm long).
Prime HCQ valve by discharging a predetermined number of actuations to waste. Discharge 10 actuations with actuator H004B-c into the cascade impaction sampling apparatus through an elbow connection with an inner channel and an in-line tubing (55 cm long).
Prime HCQ valve by discharging a predetermined number of actuations to waste. […]

With `CCN(CC)CCCC(C)Nc1ccnc2cc(Cl)ccc12` (stereo not shown) [CQ, chloroquine], the EC50 in data set [1] was 23.9 µM; in data set [2] (read-out: EC 50, for SARS-Cov2, Prophylactic Treatment 24 hrs), over 100 µM; in data set [2] (read-out: EC 50, for SARS-Cov2, Prophylactic Treatment 48 hrs), 18 µM; in data set [3] it was 1.13 µM.
`CCN(CCO)CCCC(C)Nc1ccnc2cc(Cl)ccc12` (stereo not shown) [HICQ Base]: the “Delivery Rate” value in data set [4] (<1.1 mcm) came out at 33.0%. Moreover, the “Delivered <1.1 mcm” value in data set [4] is 66.0.
As for `NC(=O)c1ncn([C@@H]2O[C@H](CO)[C@@H](O)[C@H]2O)n1` [Ribavirin], the EC50 in data set [3] is 106 µM.
